US20100123097A1, “Method for Making Carbonates and Esters” (SABIC […] IP BV, priority 2008, published 2010)

Conditions: after >20 h storage time in the solvents of the table
Procedure: Suitable reaction temperatures will typically be high enough to keep the solution or melt in the liquid form and not high enough to cause loss of the species 1, 2, 3, or 5 in FIGS. 1 and 2. The reaction temperature is less than 180° C., 160° C., 140° C. […] Higher reaction temperatures may be appropriate when more sterically hindered alcohols are used as reactants if longer reaction times are not acceptable.

COC(=O)c1ccccc1OC(=O)Oc1ccccc1C(=O)OC [BMSC, bismethyl salicyl carbonate]
Stability in these solvents (MS formation): no detectable MS formation
